Like-named read-outs stand apart in the source and are kept apart here.
Key:
human NUDT16 (wild-type) [1] = target: T1, human NUDT16 (wild-type) (Homo sapiens, UniProt Q96DE0); assay: Determination of kinetic parameters of NUDT16 wild-type (malachite green phosphate release assay); assay type: biochemical; set-up: 6-His tag followed by TEV protease site (N, cleaved yes); made in house; host or cells: E. coli Rosetta pLysS; details: for k cat/K m, This work / k cat, This work / K m, This work: Michaelis-Menten fit; for k cat, This work / K m, This work: substrate hydrolysis, 37°C; for K m, This work: buffer pH 7.5, 20 mM MgCl2; for Hydrolysis by NUDT16 (qualitative): malachite green assay, sub-μM K m not determinable
T1 sequence (Q96DE0 whole entry): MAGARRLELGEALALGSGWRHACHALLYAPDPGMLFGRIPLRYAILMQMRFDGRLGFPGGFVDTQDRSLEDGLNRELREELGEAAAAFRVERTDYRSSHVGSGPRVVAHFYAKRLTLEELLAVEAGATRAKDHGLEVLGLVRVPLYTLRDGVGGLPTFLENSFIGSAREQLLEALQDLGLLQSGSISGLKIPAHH
Source text: To establish an assay to look for product inhibition and to understand the role of the different substituents present on the purine ring, we first wanted to assess the activity of our protein preparations and compare it to the results obtained by Iyama et al. on NUDT16 activity on different nucleotides. Contrary to the results presented in the structural biology part, we used wild-type NUDT16 (no A22V mutation) for these activity studies. Using a malachite green based activity assay for quantification of phosphate release, we determined the kinetic parameters of NUDT16 hydrolysis when incubated in the presence of ITP, XDP and ADP (S3A–S3C Fig), all of which have a suitable K m for assessment with this assay and for inhibition studies (low μM range). The results are summarized and compared in Table 1 with the literature values. […] Our K m values for XDP and ITP are in the same range as data reported in Iyama et al.. Discrepancies between the two studies can be explained by differences in the detection methods (HPLC or malachite green assay), the protein constructs (with or without His-tag) and the buffer conditions. […] However, the k cat for ADP was 15 times higher, leading to a catalytic efficiency in the same range as the one determined for XDP and ITP. Such a correlation between low affinity K m values and low apparent rate constant values is also noticeable when looking more broadly at available data for the purine based substrates.
(§1) Each sample point was obtained in the presence of 1 μM of NUDT16 (0.1 μM when assayed for activity against ITP) and various concentrations of substrates in buffer C (50 mM Tris-HCl pH 7.5, 150 mM NaCl, 20 mM MgCl2, 0.005% Tween-20, and 0.5 mM TCEP). When ITP was used as a substrate, 0.1 unit of yeast inorganic pyrophosphatase (Sigma-Aldrich) was added to the well. The activity assay was performed in 100 μl in a 96-well plate at 37°C and was stopped by addition of 25 μl of Malachite Green Working Solution (prepared as described in [42]). Plate was kept under shaking at room-temperature for 15 min, then 100 μl were transferred into a 384-well plate and the measurement of the absorbance at 630nm was carried out either on a CLARIOstar (BMG LABTECH) or a Victor^3 (PerkinElmer) reader.
(§2) The amount of free phosphate produced during the hydrolysis was estimated by comparison with a standard curve.
(§3) Experiments were performed in triplicate and data analysis was done on GraphPad Prism version 5.01 for Windows (GraphPad Software, San Diego California USA, www.graphpad.com).
(§4) For each assayed substrate, starting substrate concentrations (varying from 0.5 to 240 μM) and incubation times (from 20 to 240 min) were selected in order for the quasi-steady-state assumption to remain valid.

human NUDT16 (wild-type) [2] = target: T1, human NUDT16 (wild-type); assay: Binding of products to NUDT16 by isothermal titration calorimetry
Protocol: NUDT16 was dialyzed against 20 mM Hepes pH 7.5, 300 mM NaCl, 20 mM MgCl2, 10% glycerol, and 0.5 mM TCEP in a Slide-a-Lyzer cassette (7kDa cut-off). […] The buffer compositions in the cell and the syringe were carefully matched such that the sole difference between them was either the protein or the nucleotide content.
Titrations were performed at 25°C using 32 injections of 1.2μl of nucleotide solutions (following a 1μl pre-injection) spaced by 120 sec into the 200 μl experimental cell on a iTC200 MicroCal instrument (GE Healthcare) at the Karolinska Institutet/SciLifeLab Protein Science Core Facility (http://psf.ki.se).
Binding isotherm and thermodynamic constants were determined through fitting experimental data against a one-site binding-model (number of sites, ΔH and K a being unconstrained during refinement) on Origin software v7.0552 (OriginLab).

NUDT16 = details: cited from earlier work; for K m, Ref. 14 / k cat, Ref. 14 / k cat/K m, Ref. 14: literature values, ref 14 (Iyama et al)
NUDT16 A22V = target: T2, NUDT16 A22V (Homo sapiens, UniProt Q96DE0, A22V); assay: Determination of kinetic parameters of NUDT16 A22V (malachite green assay); assay type: biochemical; details: A22V mutant, Michaelis-Menten fit
T2 construct: 6-His tag followed by TEV protease site (N, cleaved yes); made in house; host or cells: E. coli Rosetta
T2 sequence (Q96DE0 whole entry A22V): as the sequence (Q96DE0 whole entry) above, with A22V counted along it
Protocol: It is worth noting that the protein construct used to obtain the two NUDT16 crystal structures harbors an A22V mutation (see Material and Methods section). […] This was confirmed by comparing the kinetic parameters of NUDT16 wild-type with those obtained with the A22V mutation (S1 Table) when NUDT16 was assayed against XDP and ITP. […] Detailed schemes of all interactions between protein, nucleotide and metals are shown on Fig 3C–3E.
as §1, §2, §3, §4
The procedure was identical whether NUDT16 wild-type or A22V was used in the assay.

[3] = ITC, 25°C, one binding-site model

Nc1ncnc2c1ncn2[C@@H]1O[C@H](COP(=O)(O)OP(=O)(O)O)[C@@H](O)[C@H]1O [ADP]
K m for ADP relative to XDP (times higher) (human NUDT16 (wild-type) [1]; NUDT16 wild-type): about 30 times | k cat for ADP relative to XDP (times higher) (human NUDT16 (wild-type) [1]; NUDT16 wild-type): 15 times | k cat/K m, This work (human NUDT16 (wild-type) [1]; NUDT16 wild-type): 0.52 ± 0.10 10^3 s^-1M^-1 | k cat, This work (human NUDT16 (wild-type) [1]; NUDT16 wild-type): 5.754 ± 0.538 min⁻¹ | K m, This work (human NUDT16 (wild-type) [1]; NUDT16 wild-type): 185 ± 32 µM

Nc1ncnc2c1ncn2[C@@H]1O[C@H](COP(=O)(O)O)[C@@H](O)[C@H]1O [AMP]
Kd (human NUDT16 (wild-type) [2]; ITC, 25°C, one binding-site model, 20 mM MgCl2, pH 7.5): too low for establishing good binding constants

Nc1nc2c(ncn2[C@@H]2O[C@H](COP(=O)(O)OP(=O)(O)O)[C@@H](O)[C@H]2O)c(=O)[nH]1 [GDP]
K m, Ref. 14 (NUDT16): 0.33 µM | k cat, Ref. 14 (NUDT16): 0.518 min⁻¹ | k cat/K m, Ref. 14 (NUDT16): 26.1 10^3 s^-1M^-1 | Hydrolysis by NUDT16 (qualitative) (human NUDT16 (wild-type) [1]): process efficiently

Nc1nc(=O)c2ncn([C@@H]3O[C@H](COP(=O)(O)O)[C@@H](O)[C@H]3O)c2[nH]1 [GMP]
Kd (human NUDT16 (wild-type) [2]): 34.25 ± 0.05 µM | N sites (human NUDT16 (wild-type) [2]; [3]): 1.080 ± 0.015

O=P(O)(O)OP(=O)(O)OC[C@H]1O[C@@H](n2cnc3c(O)ncnc32)[C@H](O)[C@@H]1O [IDP, inosine diphosphate]
K m, Ref. 14 (NUDT16): 0.066 µM | k cat, Ref. 14 (NUDT16): 0.931 min⁻¹ | k cat/K m, Ref. 14 (NUDT16): 251 10^3 s^-1M^-1 | K m for IDP relative to ITP (times lower) (NUDT16; ref 14 (Iyama et al.)): 350 times | Hydrolysis by NUDT16 (qualitative) (human NUDT16 (wild-type) [1]): process efficiently

O=c1[nH]cnc2c1ncn2[C@@H]1O[C@H](COP(=O)(O)OP(=O)(O)OP(=O)(O)O)[C@@H](O)[C@H]1O [ITP]
K m, Ref. 14 (NUDT16): 22.1 µM | k cat, Ref. 14 (NUDT16): 3.06 min⁻¹ | k cat/K m, Ref. 14 (NUDT16): 2.31 10^3 s^-1M^-1 | Km (NUDT16 A22V): 12.8 ± 1.46 µM | kcat, NUDT16 A22V (NUDT16 A22V): 0.394 ± 0.013 min⁻¹ | k cat/K m, This work (human NUDT16 (wild-type) [1]; NUDT16 wild-type): 1.55 ± 0.20 10^3 s^-1M^-1 | k cat, This work (human NUDT16 (wild-type) [1]; NUDT16 wild-type): 0.764 ± 0.030 min⁻¹ | K m, This work (human NUDT16 (wild-type) [1]; NUDT16 wild-type): 8.23 ± 1.01 µM

O=c1[nH]c(=O)c2ncn([C@@H]3O[C@H](COP(=O)(O)OP(=O)(O)O)[C@@H](O)[C@H]3O)c2[nH]1 [XDP]
K m, Ref. 14 (NUDT16): 15.7 µM | k cat, Ref. 14 (NUDT16): 2.6 min⁻¹ | k cat/K m, Ref. 14 (NUDT16): 2.76 10^3 s^-1M^-1 | Km (NUDT16 A22V): 9.7 ± 1.25 µM | kcat, NUDT16 A22V (NUDT16 A22V): 0.309 ± 0.012 min⁻¹ | k cat/K m, This work (human NUDT16 (wild-type) [1]; NUDT16 wild-type): 0.99 ± 0.23 10^3 s^-1M^-1 | k cat, This work (human NUDT16 (wild-type) [1]; NUDT16 wild-type): 0.368 ± 0.078 min⁻¹ | K m, This work (human NUDT16 (wild-type) [1]; NUDT16 wild-type): 6.22 ± 0.55 µM

O=c1[nH]c(=O)c2ncn([C@@H]3O[C@H](COP(=O)(O)O)[C@@H](O)[C@H]3O)c2[nH]1 [XMP]
Kd (human NUDT16 (wild-type) [2]): 39.06 ± 0.07 µM | N sites (human NUDT16 (wild-type) [2]; [3]): 0.821 ± 0.024
